Source: patent EP0525360B1, “Novel phenylacetamide derivatives and processes for the preparation thereof” (KOREA RESEARCH INSTITUTE OF CHEMICAL TECHNOLOGY, priority 1991, dated 1993)

Experiments:
Type in all cases: in vivo
[1] = tested on: test animals; experiment: Behavior analysis (side-effect or toxicity scores); set-up: key to Sedation / Dyspnoea / Vasodilation / Convulsion / Salivation / Urination: behavior score; higher number = greater side effects; conditions: behavior score; for Convulsion / Salivation / Urination: normal value 0; for Dyspnoea / Ptosis / Sedation / Vasodilation: normal value 4
From the text: In order to monitor a harmful side-effect or toxicity of the compounds having the formula(I), various behavioral changes in the test animals were observed. […] The higher the number is, the greater the side effects are.

[2] = tested on: KTC-ICR mice; experiment: phenyl-1,4-benzoquinone(PBQ) induced writhing test; conditions: Mus musculus
Method: The KTC-ICR mice derived from Charles River Breeding Laboratory in the United States and provided by Experimental Animal Laboratory of Korea Research Institute of Chemical Technology were used as test animals. […] They were tested after having been adjusted to the testing environment for a week. Food and water were given freely; and illumination was maintained on a 12-hour cycle.
Experiments were performed in two ways: that is, the acetic acid induced writhing test and the phenyl-1,4-benzoquinone(PBQ) induced writhing test.
Alternatively, solutions for the PBQ induced writhing test were prepared by dissolving one of the products synthesized in Examples 33 to 46 in a mixture of Tween 80, alcohol and distilled water (1:5:94); and administered orally to the 5 ICR mice for each test in a dose of 0.3mℓ per 30g of body weight. 60 minutes later, 0.02% PBQ solution was administered intraperitoneally in a dose of 0.1mℓ per 30g of body weight of the test animals. 5 minutes thereafter, at the temperature of 40°C, the number of writhings occurred during a period of 5 minutes due to the PBQ solution administered was measured. For comparison, only the mixture of Tween 80, alcohol and distilled water was administered orally to the control group; and, after 60 minutes, the PBQ solution was administered intraperitoneally to the control group in the same manner as mentioned above.
The number of writhings suffered by the test group was compared with that of the control group; and the analgesic effect was measured in terms of the percentage of inhibition of writhing(I. W.). I. W. (%) =(A - B)/(A)x 100 [formula] A : the number of writhings suffered by the control group, B : the number of writhings suffered by the test group.
These ED50 values for the test compounds are shown in the last column of Table 1.

[3] = tested on: mice; experiment: Tail-flick test (radiant heat); conditions: p. o.
Method: Radiant heat was applied using a beam of high-intensity light focused on a tail spot. The response time, defined as the interval between the onset of the stimulus and the tail flick, was measured electronically(to the nearest 0.1 second). The beam intensity was set at a level giving a mean control reaction time of 3.8±0.4 seconds. […] The percentage of inhibition was determined by the following equation: Inhibition(%) =(Reaction time of the treated group - Reaction time of the control group)/(Reaction time of the control group)x 100 [formula]

[4] = tested on: Rats(Sprague-Dawley, female); experiment: Anti-inflammatory test (carrageenin paw edema); conditions: Rattus norvegicus, sc, 3 h
Method: Rats(Sprague-Dawley, female) weighing 100 to 120g were used. Twenty minutes after the test drug was administered(s. c.), carrageenin was injected(0.1mℓ of 1% solution, s. c.) in the plantar surface of the right hind paw.
The percentage of inhibition was determined by the following equation: Inhibition(%) =(Volume of the carrageenin treated foot - Volume of the control foot)/(Volume of the contol foot)x 100 [formula]

[5] = tested on: Male albino rats(120-170g) of the Charles River Sprague-Dawley strain; experiment: Randall-Selitto test (yeast induced hyperalgesia); conditions: rat, in vivo, 3 mg/kg
Method: Randall-Selitto Test was carried out by following the method described in Arch. Int. Pharmacodyn.
Male albino rats(120-170g) of the Charles River Sprague-Dawley strain were used. Inflammation was produced by the injection of 0.1mℓ of a 20% suspension of Brewer's yeast into the plantar surface of the rat's hind foot.
The pain threshold was measured as the pressure in mmHg required to induce the desired response(a sharp audible squeak and/or struggle) when the pressure was applied to the foot. Air pressure from an air line was admitted through a needle valve to a 20mℓ glass syringe and to a pressure gauge which was connected by a T-tube. The syringe was mounted with the plunger downward to which was connected a short bullet-shaped Teflon peg. The pressure was applied to the foot of the rat at the rate of 10 mmHg per second. Drug was given 2 hours after the yeast injection. Two hours after the drug administration, threshold response was determined.
The analgesic activity was determined in terms of the percentage of inhibition of response: Inhibition(%) =(Threshold of the treated group - Threshold of the control group)/(Threshold of the control group)x 100 [formula]

[6] = oral, 0.02% PBQ i.p. 60 minutes later, writhings during 5 minutes, mice 10 to 15g, Examples 33 to 46

NCCOc1ccc(CC(=O)NCCCc2ccc(Cl)cc2)cc1N [Example 39, N-{3-(4-chlorophenyl)propyl}-4-(2-aminoethoxy)-3-aminophenylacetamide]
Convulsion ([1]; dose 10mg/Kg): 0 | Salivation ([1]; dose 10mg/Kg): 0 | Urination ([1]; dose 10mg/Kg): 0 | Dyspnoea ([1]; dose 10mg/Kg): 4 | Ptosis ([1]; dose 10mg/Kg): 4 | Sedation ([1]; dose 10mg/Kg): 4 | Vasodilation ([1]; dose 10mg/Kg): 4 | Convulsion ([1]; dose 25mg/Kg): 0 | Salivation ([1]; dose 25mg/Kg): 0 | Urination ([1]; dose 25mg/Kg): 0 | Dyspnoea ([1]; dose 25mg/Kg): 4 | Ptosis ([1]; dose 25mg/Kg): 4 | Sedation ([1]; dose 25mg/Kg): 4 | Vasodilation ([1]; dose 25mg/Kg): 4 | Convulsion ([1]; dose 50mg/Kg): 0 | Salivation ([1]; dose 50mg/Kg): 0 | Urination ([1]; dose 50mg/Kg): 0 | Dyspnoea ([1]; dose 50mg/Kg): 4 | Ptosis ([1]; dose 50mg/Kg): 4 | Sedation ([1]; dose 50mg/Kg): 4 | Vasodilation ([1]; dose 50mg/Kg): 4 | ED50 [2, 6]: 77.6 mg/kg

NCCOc1ccc(CC(=O)NCCCc2ccc(F)cc2)cc1N [Example 40, N-{3-(4-fluorophenyl)propyl}-4-(2-aminoethoxy)-3-aminophenylacetamide]
Convulsion ([1]; dose 10mg/Kg): 0 | Salivation ([1]; dose 10mg/Kg): 0 | Urination ([1]; dose 10mg/Kg): 0 | Dyspnoea ([1]; dose 10mg/Kg): 4 | Ptosis ([1]; dose 10mg/Kg): 4 | Sedation ([1]; dose 10mg/Kg): 4 | Vasodilation ([1]; dose 10mg/Kg): 4 | Convulsion ([1]; dose 25mg/Kg): 0 | Salivation ([1]; dose 25mg/Kg): 0 | Urination ([1]; dose 25mg/Kg): 0 | Dyspnoea ([1]; dose 25mg/Kg): 4 | Ptosis ([1]; dose 25mg/Kg): 4 | Sedation ([1]; dose 25mg/Kg): 4 | Vasodilation ([1]; dose 25mg/Kg): 4 | Convulsion ([1]; dose 50mg/Kg): 0 | Salivation ([1]; dose 50mg/Kg): 0 | Urination ([1]; dose 50mg/Kg): 0 | Dyspnoea ([1]; dose 50mg/Kg): 4 | Ptosis ([1]; dose 50mg/Kg): 4 | Sedation ([1]; dose 50mg/Kg): 4 | Vasodilation ([1]; dose 50mg/Kg): 4 | Inhibition(%) ([3]; dose 100 mg/Kg): 50% | ED50 [2, 6]: 37.8 mg/kg

NCCOc1ccc(CC(=O)NCCCc2ccc(Cl)c(Cl)c2)cc1N [Example 41, N-{3-(3,4-dichlorophenyl)propyl}-4-(2-aminoethoxy)-3-aminophenylacetamide]
Convulsion ([1]; dose 25mg/Kg): 0 | Salivation ([1]; dose 25mg/Kg): 0 | Urination ([1]; dose 25mg/Kg): 0 | Dyspnoea ([1]; dose 25mg/Kg): 4 | Ptosis ([1]; dose 25mg/Kg): 4 | Sedation ([1]; dose 25mg/Kg): 4 | Vasodilation ([1]; dose 25mg/Kg): 4 | Convulsion ([1]; dose 50mg/Kg): 0 | Salivation ([1]; dose 50mg/Kg): 0 | Urination ([1]; dose 50mg/Kg): 0 | Dyspnoea ([1]; dose 50mg/Kg): 4 | Ptosis ([1]; dose 50mg/Kg): 4 | Sedation ([1]; dose 50mg/Kg): 5 | Vasodilation ([1]; dose 50mg/Kg): 4 | Convulsion ([1]; dose 100mg/Kg): 0 | Salivation ([1]; dose 100mg/Kg): 0 | Urination ([1]; dose 100mg/Kg): 0 | Dyspnoea ([1]; dose 100mg/Kg): 5 | Ptosis ([1]; dose 100mg/Kg): 5 | Sedation ([1]; dose 100mg/Kg): 6 | Vasodilation ([1]; dose 100mg/Kg): 4 | ED50 [2, 6]: 7.18 mg/kg

CC(C(=O)O)c1cccc(C(=O)c2ccccc2)c1 (stereo not drawn) [Ketoprofen]
ED50 [4]: 7.2 mg/kg

CN1CC[C@]23c4c5ccc(O)c4O[C@H]2[C@@H](O)C=C[C@H]3[C@H]1C5 [Morphine]
Inhibition(%) [5]: 391.7%

CCCCCCCC/C=C\CCCCCCCC(=O)NCc1ccc(OCCN)c(OC)c1 [NE-21610, reference compound]
Convulsion ([1]; dose 10mg/Kg): 0 | Salivation ([1]; dose 10mg/Kg): 0 | Urination ([1]; dose 10mg/Kg): 0 | Dyspnoea ([1]; dose 10mg/Kg): 4 | Ptosis ([1]; dose 10mg/Kg): 4 | Sedation ([1]; dose 10mg/Kg): 4 | Vasodilation ([1]; dose 10mg/Kg): 4 | Convulsion ([1]; dose 25mg/Kg): 0 | Salivation ([1]; dose 25mg/Kg): 0 | Urination ([1]; dose 25mg/Kg): 0 | Dyspnoea ([1]; dose 25mg/Kg): 4 | Ptosis ([1]; dose 25mg/Kg): 4 | Sedation ([1]; dose 25mg/Kg): 4 | Vasodilation ([1]; dose 25mg/Kg): 4 | Convulsion ([1]; dose 50mg/Kg): 0 | Salivation ([1]; dose 50mg/Kg): 0 | Urination ([1]; dose 50mg/Kg): 0 | Dyspnoea ([1]; dose 50mg/Kg): 4 | Ptosis ([1]; dose 50mg/Kg): 5 | Sedation ([1]; dose 50mg/Kg): 5 | Vasodilation ([1]; dose 50mg/Kg): 4 | Convulsion ([1]; dose 100mg/Kg): 2 | Salivation ([1]; dose 100mg/Kg): 0 | Urination ([1]; dose 100mg/Kg): 0 | Dyspnoea ([1]; dose 100mg/Kg): 6 | Ptosis ([1]; dose 100mg/Kg): 7 | Sedation ([1]; dose 100mg/Kg): 7 | Vasodilation ([1]; dose 100mg/Kg): 4 | Inhibition(%) ([3]; dose 200 mg/Kg): 50% | ED50 ([2]; po, writhing test, inducer (acetic acid or PBQ) not stated for this reference): > 300 mg/kg
